Experiments:
[1] = Stability of Abamectin in water exposed to light at various pH-values (HPLC); assay type: physicochemical; conditions: Light (5000-6000 lux)
Experimental: The stability of Abamectin in water exposed to light at various pH-values was determined. 194.4 mg of abamectin was dissolved in 10 ml methanol and 1 ml of the solution transferred to 100 ml of demineralised water and a part of this transferred to a buffer solution. The solution was exposed to light (5000-6000 lux) at 25° C. and analysed using a HPLC.

[2] = Stability of Abamectin in water at various pH-values and temperatures (dark, HPLC); assay type: physicochemical
Experimental: The stability of Abamectin in water at various pH-values and temperatures was determined. 194.4 mg of abamectin was dissolved in 10 ml methanol and 1 ml of the solution transferred to 100 ml of de-mineralised water and a part of this was transferred to a buffer solution. The sample was kept in the dark and the solution analysed using a HPLC.

## Abamectin
[1]; pH 4.0, 25° C., 7 days
  Abemectin concentration (ppm): 2.923 ppm
[1]; pH 4.0, 25° C., 14 days
  Abemectin concentration (ppm): 2.332 ppm
[1]; pH 4.0, 25° C., 21 days
  Abemectin concentration (ppm): 1.961 ppm
[1]; pH 4.0, 25° C., 28 days
  Abemectin concentration (ppm): 1.666 ppm
[1]; pH 4.0, 25° C., Initial
  Abemectin concentration (ppm): 3.495 ppm
[1]; pH 7.0, 25° C., 7 days
  Abemectin concentration (ppm): 2.941 ppm
[1]; pH 7.0, 25° C., 14 days
  Abemectin concentration (ppm): 2.529 ppm
[1]; pH 7.0, 25° C., 21 days
  Abemectin concentration (ppm): 2.223 ppm
[1]; pH 7.0, 25° C., 28 days
  Abemectin concentration (ppm): 2.034 ppm
[1]; pH 7.0, 25° C., Initial
  Abemectin concentration (ppm): 3.327 ppm
[1]; pH 9.0, 25° C., 7 days
  Abemectin concentration (ppm): 3.163 ppm
[1]; pH 9.0, 25° C., 14 days
  Abemectin concentration (ppm): 2.810 ppm
[1]; pH 9.0, 25° C., 21 days
  Abemectin concentration (ppm): 2.360 ppm
[1]; pH 9.0, 25° C., 28 days
  Abemectin concentration (ppm): 2.173 ppm
[1]; pH 9.0, 25° C., Initial
  Abemectin concentration (ppm): 3.555 ppm
[2]; pH 4.0, 25 ° C., 7 days
  Abemectin concentration (ppm): 3.130 ppm
[2]; pH 4.0, 25 ° C., 14 days
  Abemectin concentration (ppm): 2.782 ppm
[2]; pH 4.0, 25 ° C., 21 days
  Abemectin concentration (ppm): 2.566 ppm
[2]; pH 4.0, 25 ° C., 28 days
  Abemectin concentration (ppm): 2.524 ppm
[2]; pH 4.0, 25 ° C., Initial
  Abemectin concentration (ppm): 3.495 ppm
[2]; pH 4.0, 50 ° C., 7 days
  Abemectin concentration (ppm): 1.054 ppm
[2]; pH 4.0, 50 ° C., 14 days
  Abemectin concentration (ppm): 0.383 ppm
[2]; pH 4.0, 50 ° C., 21 days
  Abemectin concentration (ppm): 0.123 ppm
[2]; pH 4.0, 50 ° C., 28 days
  Abemectin concentration (ppm): 0.0609 ppm
[2]; pH 4.0, 50 ° C., Initial
  Abemectin concentration (ppm): 3.495 ppm
[2]; pH 7.0, 25 ° C., 7 days
  Abemectin concentration (ppm): 3.188 ppm
[2]; pH 7.0, 25 ° C., 14 days
  Abemectin concentration (ppm): 3.040 ppm
[2]; pH 7.0, 25 ° C., 21 days
  Abemectin concentration (ppm): 2.829 ppm
[2]; pH 7.0, 25 ° C., 28 days
  Abemectin concentration (ppm): 2.676 ppm
[2]; pH 7.0, 25 ° C., Initial
  Abemectin concentration (ppm): 3.327 ppm
[2]; pH 7.0, 50 ° C., 7 days
  Abemectin concentration (ppm): 2.952 ppm
[2]; pH 7.0, 50 ° C., 14 days
  Abemectin concentration (ppm): 2.780 ppm
[2]; pH 7.0, 50 ° C., 21 days
  Abemectin concentration (ppm): 2.194 ppm
[2]; pH 7.0, 50 ° C., 28 days
  Abemectin concentration (ppm): 1.949 ppm
[2]; pH 7.0, 50 ° C., Initial
  Abemectin concentration (ppm): 3.327 ppm
[2]; pH 9.0, 25 ° C., 7 days
  Abemectin concentration (ppm): 3.005 ppm
[2]; pH 9.0, 25 ° C., 14 days
  Abemectin concentration (ppm): 2.596 ppm
[2]; pH 9.0, 25 ° C., 21 days
  Abemectin concentration (ppm): 2.380 ppm
[2]; pH 9.0, 25 ° C., 28 days
  Abemectin concentration (ppm): 2.287 ppm
[2]; pH 9.0, 25 ° C., Initial
  Abemectin concentration (ppm): 3.555 ppm
[2]; pH 9.0, 50 ° C., 7 days
  Abemectin concentration (ppm): 1.265 ppm
[2]; pH 9.0, 50 ° C., 14 days
  Abemectin concentration (ppm): 0.519 ppm
[2]; pH 9.0, 50 ° C., 21 days
  Abemectin concentration (ppm): 0.205 ppm
[2]; pH 9.0, 50 ° C., 28 days
  Abemectin concentration (ppm): 0.0628 ppm
[2]; pH 9.0, 50 ° C., Initial
  Abemectin concentration (ppm): 3.555 ppm
